Columns and labels:
[1] = tested on: NSCLC patients; assay: Same Phase 3 trial with serial ctDNA monitoring: overall survival by maxMMPM at C3D1; type: in vivo, human
Description: In this example, the patients' samples from the same Phase 3 trial as described in Example 1 were collected processed an analyzed essentially as described in Example 1. However, the samples were collected serially during the administration of therapy.
Multiple metrics of circulating tumor DNA (ctDNA) were assessed for association with OS.
Plasma from 94 patients taken at baseline and at subsequent cycles of therapy every three weeks (C2D1, C3D1, and C4D1) were analyzed retrospectively for ctDNA with the AVENIO ctDNA Surveillance Kit (Roche Sequencing Solutions, Pleasanton, Calif.) Mutations detected in matched PBMC DNA were excluded in correlation analyses with clinical outcomes. ctDNA was measured by allele frequency (AF) or mutant molecules per milliliter (MMPM), and summarized across multiple mutations within a sample by median, mean or maximum. Concordance between these per-sample metrics and PFS/OS were assessed using C index, which is equivalent to AUC under a Receiver Operating Characteristic (ROC) curve.
Specifically, samples were collected and assessed at drug administration cycle 1, 2, or 3 or 4 taken in each case, on day 1 (C1D1, C2D1, C3D1, and C4D1). […] Using the max MMPM at C3D1, the patients were dichotomized at a median for the entire cohort of 8.75 maximal MMPM. […] In the docetaxel arm, the 1-year survival rate among MMPM low vs MMPM high patients was 0.7 vs 0.07. Because mutation metrics obtained from overall ctDNA levels were associated with OS in metastatic NSCLC, ctDNA is a promising non-invasive blood based biomarker in the metastatic setting of NSCLC.

[2] = tested on: advanced NSCLC patients; assay: Phase 3 randomized trial, Atezolizumab vs docetaxel in second line advanced NSCLC: progression-free survival by baseline ctDNA mutation metric; type: in vivo, human; settings: for Events/Total number of patients: PFS events
Description: In a Phase 3, open-label, multicenter randomized controlled trial, NSCLC patients received either Atezolizumab or docetaxel in a second line setting of advanced NSCLC. Blood plasma samples were obtained from 102 patients prior to start of second line therapy. The AVENIO® ctDNA kit, Surveillance Panel (Roche Sequencing Solutions, Pleasanton, Calif.) was used to assess the number of mutations in patient samples. Cell-free DNA (cfDNA) from the patients was isolated and analyzed according to the manufacturer's instructions of the AVENIO® ctDNA Kit. The metrics assessed included the numbers of variants and maximum allele frequency (MaxAF, the highest allele frequency of a single mutation among all mutations detected within a single sample).
The “number of mutations” metric was assessed on the population level and patients were assessed for progression-free survival (PFS) and overall survival (OS). (FIGS. 1 and 2, Tables 2 and 3) Using median or 75th percentile cut-off, patients treated with Atezolizumab and with number of mutations greater or equal median or 75th percentile have longer progression survival compared to that of chemotherapy, with a HR of 0.67 or 0.49, respectively. Meanwhile, Atezolizumab didn't show more benefit vs chemotherapy in patients with number of mutations fewer than the median or 75th percentile. The HR is 1.12 and 1.05 for <median or <75 percentile, respectively.
The MaxAF detected in the blood samples was also used to assess its relationship with progression free survival and overall survival. Using median cut-off, patients with MaxAF greater than the median have longer progression free survival when treated with Atezolizumab compared to chemotherapy, with a HR of 0.56 (FIG. 3, Table 4). In patients with MaxAF lesser the median, no benefit was observed on treatment with Atezolizumab vs chemotherapy (HR of 1.45).

[3] = tested on: NSCLC patients; settings: ≥2L NSCLC patients; previously demonstrated by the study; cited from earlier work
[4] = MMPM high patients (max MMPM at C3D1, dichotomized at median 8.75)
[5] = MMPM low patients (max MMPM at C3D1, dichotomized at median 8.75)
[6] = number of detected variants <75th percentile (<12)
[7] = number of detected variants <Median (<6.5)
[8] = number of detected variants ≥75th percentile (≥12)
[9] = number of detected variants ≥Median (≥6.5)
[10] = patients with MaxAF <Median (<44.58) at baseline
[11] = patients with MaxAF ≥Median (≥44.58) at baseline
[12] = patients with number of detected variants <75th percentile (<12) at baseline
[13] = patients with number of detected variants <Median (<6.5) at baseline
[14] = patients with number of detected variants ≥75th percentile (≥12) at baseline
[15] = patients with number of detected variants ≥Median (≥6.5) at baseline

Molecule	1-year survival rate (OS) [1, 4]	1-year survival rate (OS) [1, 5]	Events/Total number of patients ([2]; MaxAF <Median (<44.58))	Events/Total number of patients ([2]; MaxAF ≥Median (≥44.58))	Events/Total number of patients [2, 6]	Events/Total number of patients [2, 7]	Events/Total number of patients [2, 8]	Events/Total number of patients [2, 9]	Median Progression Free Survival [2, 10]	Median Progression Free Survival [2, 11]	Median Progression Free Survival [2, 12]	Median Progression Free Survival [2, 13]	Median Progression Free Survival [2, 14]	Median Progression Free Survival [2, 15]	also measured
CC(=O)O[C@@]12CO[C@@H]1C[C@H](O)[C@@]1(C)C(=O)[C@H](O)C3=C(C)[C@@H](OC(=O)[C@H](O)[C@@H](NC(=O)OC(C)(C)C)c4ccccc4)C[C@@](O)([C@@H](OC(=O)c4ccccc4)[C@H]21)C3(C)C [Docetaxel, docetaxel]	0.07	0.7	27/28	23/23	37/37	27/27	13/14	23/24	4.09	3.09	4.07	3.98	2.41	2.94	
atezolizumab	0.43	0.81	22/23	24/28	35/38	23/24	11/13	23/27	2.6	4.99	2.71	2.74	5.85	2.79	OS benefit, atezolizumab vs docetaxel [3]: clinically significant OS benefit; Hazard Ratio (HR), progression free survival, Atezolizumab vs docetaxel ([2]; MaxAF <Median (<44.58)): 1.45; Hazard Ratio (HR), progression free survival, Atezolizumab vs docetaxel ([2]; MaxAF ≥Median (≥44.58)): 0.56; Hazard Ratio (HR), progression free survival, Atezolizumab vs docetaxel [2, 6]: 1.05; Hazard Ratio (HR), progression free survival, Atezolizumab vs docetaxel [2, 7]: 1.12; Hazard Ratio (HR), progression free survival, Atezolizumab vs docetaxel [2, 8]: 0.49; Hazard Ratio (HR), progression free survival, Atezolizumab vs docetaxel [2, 9]: 0.67
